From patent publication US9682925B2, “Cyclopropaneamine compound” (TAKEDA PHARMACEUTICAL COMPANY LIMITED, priority 2011, dated 2017)
Structures can show the parent of a compound that is named as a salt.

Key:
Type in all cases: biochemical
[1] = target: T1, MAO-A (Homo sapiens, UniProt P21397); experiment: Measurement of MAO-A inhibitory activity (MAO-Glo Assay)
T1 construct: purchased Sigma-Aldrich Co. LLC
T1 sequence (P21397 1-527): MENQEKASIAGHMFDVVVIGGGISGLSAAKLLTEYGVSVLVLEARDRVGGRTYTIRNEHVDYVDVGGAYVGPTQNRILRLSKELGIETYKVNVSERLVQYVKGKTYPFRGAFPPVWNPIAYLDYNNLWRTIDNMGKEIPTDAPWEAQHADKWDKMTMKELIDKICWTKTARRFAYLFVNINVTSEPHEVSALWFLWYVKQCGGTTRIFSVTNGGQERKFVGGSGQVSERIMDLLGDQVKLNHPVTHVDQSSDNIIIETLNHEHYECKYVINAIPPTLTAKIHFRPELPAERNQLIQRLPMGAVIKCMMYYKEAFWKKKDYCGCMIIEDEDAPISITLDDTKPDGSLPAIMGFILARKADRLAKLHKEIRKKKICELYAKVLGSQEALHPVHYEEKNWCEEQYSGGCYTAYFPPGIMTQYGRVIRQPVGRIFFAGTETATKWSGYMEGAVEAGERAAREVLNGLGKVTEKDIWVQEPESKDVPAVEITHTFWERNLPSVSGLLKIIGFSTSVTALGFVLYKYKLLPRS
Method: (1) Measurement of MAO-A Inhibitory Activity
The MAO-A inhibitory activity evaluation described below followed the protocol of MAO-Glo (registered trademark) Assay of Promega KK.
(§1) A test compound dissolved in 4% DMSO was added by 12.5 μL to 25 μL reaction solution (100 mM HEPES (pH 7.5), 5% glycerol) containing 400 ng of MAO-A enzyme (Sigma-Aldrich Co. LLC.), and the mixture was reacted at room temperature for 10 min. MAO substrate (Promega KK) (160 μM) was added by 12.5 μL to start the reaction. After reaction at room temperature for 60 min, Luciferine detection reagent (Promega KK) (50 μL) was added to terminate the reaction. After reaction at room temperature for 20 min with stirring, the luminescence was measured by Envision (PerkinElmer). The MAO-A inhibitory rate (%) of the test compound was calculated by the following formula. inhibitory rate (%)=(1−(test compound count−blank)÷(control−blank)×100
The count of the MAO-A enzyme reaction mixture under compound non-addition conditions is indicated as control, and the count under compound non-addition and MAO-A enzyme non-addition conditions is indicated as blank.

[2] = target: T2, human LSD1(171-852) (Homo sapiens, UniProt O60341); experiment: Measurement of LSD1 inhibitory activity (time-resolved fluorescence, biotin-histone H3 mono methylated K4 peptide); conditions: read-out: LSD1 IC50 value
T2 construct: to give hLSD1(171-852) purified product; made in house; host or cells: Escherichia coli C43(DE3) pLysS
Method: When the turbidity reached 600 Klett units, the culture temperature was changed to 16° C., IPTG having a final concentration of 0.5 mM was added to induce expression, and the cells were cultured further for 21 hr. The culture medium was centrifuged at 9,000 g for 10 min, and Escherichia coli pellets were recovered.
Escherichia coli pellets in 9 L of the culture medium were suspended in 1340 mL of an extraction buffer (PBS, 5% (V/V) Glycerol), and 6700 units of Benzonase (Merck) were added. Using Branson ultrasonic disintegrator, the suspension was disrupted by ultrasonication for 3 min, and centrifuged at 33,000 g for 20 min, and the supernatant was recovered.
(5) Measurement of LSD1 Inhibitory Activity
After reaction at room temperature for 20 min, 1 mM 2-PCPA solution (5 μL) was added to terminate the reaction. A detection solution (800 mM potassium fluoride, 0.1% BSA) containing europium-labeled antihistone H3 antibody (Wako Pure Chemical Industries, Ltd.) and Streptavidin-XL665 (Cisbio) was further added by 5 μL, and the mixture was left standing for 60 min. A time-resolved fluorescence (excitation 320 nm, emission 615 nm, 665 nm) was measured by Envision (PerkinElmer). The LSD1 inhibitory rate (%) of the test compound was calculated by the following formula. inhibitory rate (%)=(1−(test compound count−blank)÷(control−blank)×100
The count of the LSD1 enzyme reaction mixture under compound non-addition conditions is indicated as control, and the count under compound non-addition and LSD1 enzyme non-addition conditions is indicated as blank.

[3] = target: T3, MAO-B (Homo sapiens, UniProt P27338); experiment: Measurement of MAO-B inhibitory activity (MAO-Glo Assay)
T3 construct: purchased Sigma-Aldrich Co. LLC
T3 sequence (P27338 1-520): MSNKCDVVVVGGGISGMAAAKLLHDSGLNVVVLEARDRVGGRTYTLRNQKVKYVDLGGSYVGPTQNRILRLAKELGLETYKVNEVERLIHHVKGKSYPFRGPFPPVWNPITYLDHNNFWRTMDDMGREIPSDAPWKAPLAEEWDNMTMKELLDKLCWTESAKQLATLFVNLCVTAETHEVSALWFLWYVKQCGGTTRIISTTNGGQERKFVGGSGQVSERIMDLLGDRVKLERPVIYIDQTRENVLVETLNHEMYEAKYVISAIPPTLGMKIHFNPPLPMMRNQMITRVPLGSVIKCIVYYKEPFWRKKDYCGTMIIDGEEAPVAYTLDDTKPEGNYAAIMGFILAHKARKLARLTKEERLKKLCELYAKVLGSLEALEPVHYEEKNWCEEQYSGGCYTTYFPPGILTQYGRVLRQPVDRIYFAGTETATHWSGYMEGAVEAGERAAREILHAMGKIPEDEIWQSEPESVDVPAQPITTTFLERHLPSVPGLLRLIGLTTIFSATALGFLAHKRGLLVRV
Method: (2) Measurement of MAO-B Inhibitory Activity
The MAO-B inhibitory activity evaluation described below followed the protocol of MAO-Glo (registered trademark) Assay of Promega KK.
as §1, with “glycerol, 10% DMSO)” for “glycerol)”, “MAO-B” for “MAO-A”, “(16” for “(160”
The count of the MAO-B enzyme reaction mixture under compound non-addition conditions is indicated as control, and the count under compound non-addition and MAO-B enzyme non-addition conditions is indicated as blank.

Structure (SMILES) | IC50 [1] [µM] | IC50 [2] [nM] | IC50 [3] [µM]
O=C(Nc1ccc([C@@H]2C[C@H]2NCCOCc2ccccc2)cc1)c1ccc(-c2ccccc2)cc1 (relative stereo) [Example 52, N-{4-[trans-2-{[2-(benzyloxy)ethyl]-amino}cyclopropyl]-phenyl}biphenyl-4-carboxamide] | > 10 | 160 | > 10
NCCN[C@@H]1C[C@H]1c1ccc(NC(=O)c2ccc(-c3ccccc3)cc2)cc1 (relative stereo) [Example 44, N-(4-{trans-2-[(2-aminoethyl)-amino]cyclo-propyl}phenyl)-biphenyl-4-carboxamide] | > 10 | < 100 | 9.3
O=C(Nc1ccc([C@@H]2C[C@H]2NCC2CC2)cc1)c1ccc(-c2ncccn2)cc1 (relative stereo) [Example 138, N-(4-{trans-2-[(cyclopropylmethyl)amino]cyclopropyl}phenyl)-4-(pyrimidin-2-yl)benzamide hydrochloride] | > 10 | < 100 | > 10
O=C(Nc1ccc([C@@H]2C[C@H]2NCC2CC2)cc1)c1ccc(-n2ccnc2)cc1 (relative stereo) [Example 92, N-(4-{trans-2-[(cyclopropylmethyl)-amino]cyclopropyl}-phenyl)-4-(1H-imidazol-1-yl)benzamide] | 7.9 | < 100 | > 10
O=C(Nc1ccc([C@@H]2C[C@H]2NCC2CC2)cc1)c1ccc(-c2ccccc2)cc1 (single isomer, unassigned) [Example 166, N-(4-{(1S,2R) or (1R,2S)-2-[(cyclopropylmethyl)amino]cyclopropyl}phenyl)biphenyl-4-carboxamide hydrochloride] | > 10 | – | > 10
Cn1cc(C(=O)Nc2ccc([C@@H]3C[C@H]3NCC3CC3)cc2)cn1 (relative stereo) [Example 163, N-(4-{trans-2-[(cyclopropylmethyl)amino]cyclopropyl}phenyl)-1-methyl-1H-pyrazole-4-carboxamide hydrochloride] | > 10 | – | > 10
O=C(Nc1ccc([C@H]2C[C@@H]2NCC2CC2)cc1)c1ccc(-c2ccccc2)cc1 (single isomer, unassigned) [Example 165, N-(4-{(1R,2S) or (1S,2R)-2-[(cyclopropylmethyl)amino]cyclopropyl}phenyl)biphenyl-4-carboxamide hydrochloride] | > 10 | – | > 10
O=C(Nc1ccc([C@@H]2C[C@H]2NCC2CC2)cc1)c1cc(C(F)(F)F)ccc1F (relative stereo) [Example 73, N-(4-{trans-2-[(cyclopropylmethyl)amino]cyclopropyl}phenyl)-2-fluoro-5-(trifluoromethyl)benzamide hydrochloride] | – | < 100 | 8.1

Next, values leading:

IC50 [1] [µM] | IC50 [2] [nM] | IC50 [3] [µM] | Structure (SMILES)
> 10 | < 100 | > 10 | COc1ccc(CN[C@@H]2C[C@H]2c2ccc(NC(=O)c3cccc(Br)c3)cc2)cc1OC (relative stereo) [Example 6, 3-bromo-N-(4-{trans-2-[(3,4-dimethoxybenzyl)amino]cyclopropyl}phenyl)benzamide]
9.1 | < 100 | > 10 | O=C(Nc1ccc([C@@H]2C[C@H]2NCc2cccnc2)cc1)c1ccc(-c2ccccc2)cc1 (relative stereo) [Example 38, N-(4-{trans-2-[(pyridin-3-ylmethyl)amino]-cyclopropyl}-phenyl)biphenyl-4-carboxamide]
> 10 | < 100 | > 10 | O=C(Nc1ccc([C@@H]2C[C@H]2NCC2CC2)cc1)c1cccc(-n2cnnn2)c1 (relative stereo) [Example 100, N-(4-{trans-2-[(cyclopropylmethyl)-amino]cyclopropyl}-phenyl)-3-(1H-tetrazol-1-yl)benzamide]
4.3 | < 100 | > 10 | O=C(Nc1ccc([C@@H]2C[C@H]2NCc2ccc3nccn3c2)cc1)c1cccc(C(F)(F)F)c1 (relative stereo) [Example 107, N-(4-{trans-2-[(imidazo[1,2-a]pyridin-6-ylmethyl)amino]cyclopropyl}phenyl)-3-(trifluoromethyl)benzamide dihydrochloride]
> 10 | 1800 | > 10 | CCCc1ccc(-c2ccc(C(=O)Nc3ccc([C@@H]4C[C@H]4NCC4CC4)cc3)cc2)cc1 (relative stereo) [Example 116, N-(4-{trans-2-[(cyclopropylmethyl)amino]cyclopropyl}-phenyl)-4′-propylbiphenyl-4-carboxamide]
2.4 | 150 | > 10 | O=C(Nc1ccc([C@@H]2C[C@H]2NCc2ccccc2)cc1)c1cccc(OCc2ccccc2)c1 (relative stereo) [Example 11, N-{4-[trans-2-(benzylamino)cyclopropyl]phenyl}-3-(benzyloxy)benzamide hydrochloride]
4.7 | < 100 | > 10 | O=C(Nc1ccc([C@@H]2C[C@H]2NCc2cccnc2)cc1)c1ccccc1 (relative stereo) [Example 12, N-(4-{trans-2-[(pyridin-3-ylmethyl)amino]cyclopropyl}phenyl)-benzamide bis(trifluoroacetate)]
> 10 | < 100 | > 10 | NS(=O)(=O)c1cccc(C(=O)Nc2ccc([C@@H]3C[C@H]3NCC3CC3)cc2)c1 (relative stereo) [Example 145, N-(4-{trans-2-[(cyclopropylmethyl)amino]cyclopropyl}phenyl)-3-sulfamoylbenzamide hydrochloride]
